Source: PMC8421423, “Cellular model system to dissect the isoform-selectivity of Akt inhibitors” (Nature Communications, 2021)
Values joined by “and” are separate entries in the source; they are usually repeats but may differ in a detail not shown here. Equal entries are not always repeated. Where two headings read alike, the source gives them in different places.

Key:
[1] = test system: pAkt^S473 and downstream targets in Ba/F3 myr-Akt1; details: Ba/F3 myr-Akt1, 4-h treatment
[2] = test system: pAkt^S473 and downstream targets in Ba/F3 myr-Akt3; test: Western blot analysis, Ba/F3 myr-Akt3 cells; type: cell-based, murine; details: Ba/F3 myr-Akt3, 4-h treatment
Description: Cells were seeded into six-well tissue culture plates (Sarstedt) (BaF3 myr-Akt1/2/3: 10^6 cells/well, PANC1: 250.000 cells/well). After 24 h incubation, cells were treated with various concentrations of inhibitors or DMSO and incubated for additional 4.5 h before cells were washed twice with ice-cold PBS. Cell lysis was initiated by addition of 100 μL RIPA buffer (Cell Signaling Technology) per well supplemented with phosphatase and protease inhibitor cocktails (Sigma) followed by incubation on ice for 20 min. Cells were then harvested by scraping (PANC1) or centrifugation (BaF3). Whole cell lysates were cleared by centrifugation at 14,000×g/4 °C for 10 min and transferred into fresh, pre-cooled microcentrifuge tubes. Protein concentrations were determined using the Pierce BCA protein assay (Thermo) as per manufacturer’s instructions. Equal amounts of protein were separated by SDS-PAGE and transferred to Immobilon-FL PVDF membranes (Merck Millipore) using Pierce™ 1-step transfer buffer (Thermo) and the Pierce™ Power Blotter (Thermo). Membranes were washed for 5 min with ddH2O, blocked with Intercept®Blocking Buffer TBS (Li-Cor) for 1 h at room temperature, and then incubated with primary antibodies diluted in Intercept®Blocking Buffer TBS overnight at 4 °C with gentle agitation. […]

parental Ba/F3 cells = test: CellTiter-Glo cell viability assay; type: cell-based, murine; details: for cell viability: CTG, parental
[3] = CellTiter-Glo cell viability assay; type: cell-based, murine; details: mouse, CTG, parental, single replicates
Ba/F3^myr-Akt3 cells = test: CellTiter-Glo cell viability assay; details: for Log ratio EC50 [Akt] / EC50 [Akt], Akt3 / Akt2: cell viability assay Ba/F3 myr-Akt cells, log units
Ba/F3^myr-Akt1 cells = test: CellTiter-Glo cell viability assay; details: for Log ratio EC50 [Akt] / EC50 [Akt], Akt1 / Akt2: cell viability assay Ba/F3 myr-Akt cells, log units
Akt2 = Akt2 (Homo sapiens, UniProt P31751); test: STK HTRF KinEASE activity-based assay (IC50)
Akt1 [4] = molecular target: Akt1 (Homo sapiens, UniProt P31749); test: STK HTRF KinEASE activity-based assay (IC50); details: for Log ratio IC50 [Akt] / IC50 [Akt], Akt1 / Akt2: biochemical activity based assay, log units
Ba/F3^myr-Akt2 cells = test: CellTiter-Glo cell viability assay
Description: On day 0, cells were plated into white 384-well cell culture plates (Greiner Bio-One) using a Multidrop reagent dispenser (Thermo Fisher Scientific) at cell numbers that ensure linear and optimal luminescent signal intensity (Ba/F3myr-Akt1: 600 cells/well, Ba/F3myr-Akt2: 800 cells/well, Ba/F3myr-Akt3: 800 cells/well). […] Cell viability was analyzed on day 4 using the CellTiter-Glo Assay (Promega) as per the manufacturer’s instructions. […] All experimental points were measured in duplicates for each plate and were replicated in at least three plates.

Akt3 = Akt3 (Homo sapiens, UniProt Q9Y243); test: STK HTRF KinEASE activity-based assay (IC50)
Description: The biochemical half maximal inhibitory concentrations (IC50) were determined with the STK HTRF KinEASE assay (Cisbio) according to the manufactor’s instructions. Briefly: 5 µL Kinase solution and 2.5 µL inhibitor solution (8% DMSO in HTRF buffer) were incubated for 1 h before the reaction was started by addition of 2.5 µL starting solution containing ATP and substrate peptide. […] After reaction completion (Akt1: 60 min, Akt2: 20 min, Akt3: 15 min), 10 µL of stop solution were added. […] The quotient of both intensities were recorded at eight different inhibitor concentrations and data fit to a Hill 4-parameter equation with Quattro software suite (Quattro Research GmbH, Martinsried, Germany). Each reaction was performed in duplicates and at least three independent determinations of each IC50 were made.

Akt1 [5] = molecular target: T1, Akt1 (Homo sapiens, UniProt P31749, E114A/E115A/E116A); test: ESI-MS/MS of tryptic digest (modified cysteine residues); type: binding; details: 5-fold molar excess of inhibitor
T1 construct: AKT1(2–446, E114/115/116A); His6 with TEV protease recognition site (N, cleaved yes); made in house; host or cells: Spodoptera frugiperda (Sf9)
Description: ESI-MS/MS samples were prepared as stated above followed by steps of reduction, alkylation, and tryptic digest. The digested samples were stage tip-purified using C18 tips and according to a protocol described elsewhere. Subsequently, samples were thawed, dissolved in 20 μL of 0.1% TFA in water, sonicated at room temperature for 15 min, and centrifuged at 15,000×g for 1 min shortly before analysis. In all, 3 μL of sample were loaded onto a pre-column cartridge and desalted for 5 min using 0.1% TFA in water as eluent at a flow rate of 30 μL/min. The samples were back-flushed from the pre-column to the nano-HPLC column during the whole analysis. Elution was performed using a gradient starting at 5% B with a final composition of 30% B after 35 min (flow rate 300 nL/min) using 0.1% formic acid in water as eluent A and 0.1% formic acid in acetonitrile as eluent B and a column temperature of 40 °C. […] During the complete gradient cycle, a typical TOP10 shot-gun proteomics method for the MS and MS/MS analysis was used. For full scan MS experiments a mass range of m/z 300–1650 was scanned with a resolution of 70000. MS/MS experiments were followed by up to 10 high energy collision dissociation (HCD) MS/MS scans with a resolution of 17,500 of the most intense at least doubly charged ions. Data evaluation was performed using MaxQuant[50]. Spectra were searched against the specific Akt sequence and a contamination database using a false discovery rate of 1% on peptide and protein level using a decoy database for determination of the false discovery rate. For database search oxidation of methionine and N-terminal acetylation of proteins, carbamidomethylation of cysteines, and artificial modification of cysteines were defined as variable modifications.

[6] = Mus musculus, read-out: CTG BaF3myr-Akt3, Mean, mean of replicates
[7] = Mus musculus, read-out: CTG BaF3myr-Akt3, individual determinations, single replicates
[8] = read-out: CTG BaF3myr-Akt3, individual determinations, single replicates
[9] = Mus musculus, read-out: CTG BaF3myr-Akt1, Mean, mean of replicates
[10] = Mus musculus, read-out: CTG BaF3myr-Akt1, individual determinations, single replicates
[11] = read-out: CTG BaF3myr-Akt1, individual determinations, single replicates
[12] = HTRF IC50 Akt2, individual determinations, single replicates
[13] = IC50 Akt2, HTRF, ATP at KM, 1 h preincubation
[14] = Mus musculus, BaF3, CTG, parental BaF3 cell line, read-out: EC50 BaF3
[15] = Mus musculus, BaF3, parental cells, mean of replicates, read-out: CTG BaF3, Mean
[16] = Mus musculus, BaF3, parental cells, single replicates, read-out: CTG BaF3, individual determinations
[17] = parental cells, single replicates, read-out: CTG BaF3, individual determinations
[18] = HTRF IC50 Akt1, Mean, mean of replicates
[19] = HTRF IC50 Akt1, individual determinations, single replicates
[20] = IC50 Akt1, HTRF, ATP at KM, 1 h preincubation
[21] = read-out: CTG BaF3myr-Akt2, individual determinations, single replicates
[22] = IC50 Akt3, HTRF, ATP at KM, 1 h preincubation

Sequence of Akt2 (P31751 whole entry): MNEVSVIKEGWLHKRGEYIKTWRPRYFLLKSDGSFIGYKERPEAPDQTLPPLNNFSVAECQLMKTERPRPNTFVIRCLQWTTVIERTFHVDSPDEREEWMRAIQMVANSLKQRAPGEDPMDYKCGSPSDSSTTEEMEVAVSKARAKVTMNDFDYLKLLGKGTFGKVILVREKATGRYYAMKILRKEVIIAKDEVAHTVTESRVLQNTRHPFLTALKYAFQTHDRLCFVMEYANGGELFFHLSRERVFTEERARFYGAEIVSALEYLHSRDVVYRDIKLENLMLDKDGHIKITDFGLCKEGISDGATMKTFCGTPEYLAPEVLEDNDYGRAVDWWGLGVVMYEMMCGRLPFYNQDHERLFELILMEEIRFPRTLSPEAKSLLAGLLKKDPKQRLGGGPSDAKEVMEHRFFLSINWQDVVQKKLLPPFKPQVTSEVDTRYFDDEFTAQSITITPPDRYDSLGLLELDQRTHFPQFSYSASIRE
Sequence of Akt1 (Homo sapiens, UniProt P31749) (P31749 whole entry): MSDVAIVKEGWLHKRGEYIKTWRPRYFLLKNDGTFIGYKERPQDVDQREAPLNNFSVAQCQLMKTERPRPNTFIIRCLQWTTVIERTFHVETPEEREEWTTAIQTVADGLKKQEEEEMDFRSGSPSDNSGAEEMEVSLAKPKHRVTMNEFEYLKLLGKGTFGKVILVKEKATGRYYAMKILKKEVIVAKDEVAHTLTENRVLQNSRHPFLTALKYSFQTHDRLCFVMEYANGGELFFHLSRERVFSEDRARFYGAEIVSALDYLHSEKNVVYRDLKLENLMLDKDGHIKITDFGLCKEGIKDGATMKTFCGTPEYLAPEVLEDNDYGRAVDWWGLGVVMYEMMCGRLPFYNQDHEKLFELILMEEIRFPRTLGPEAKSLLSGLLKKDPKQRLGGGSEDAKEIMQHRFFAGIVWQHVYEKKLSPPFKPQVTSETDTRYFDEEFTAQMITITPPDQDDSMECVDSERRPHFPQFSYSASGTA
Sequence of Akt3 (Q9Y243 whole entry): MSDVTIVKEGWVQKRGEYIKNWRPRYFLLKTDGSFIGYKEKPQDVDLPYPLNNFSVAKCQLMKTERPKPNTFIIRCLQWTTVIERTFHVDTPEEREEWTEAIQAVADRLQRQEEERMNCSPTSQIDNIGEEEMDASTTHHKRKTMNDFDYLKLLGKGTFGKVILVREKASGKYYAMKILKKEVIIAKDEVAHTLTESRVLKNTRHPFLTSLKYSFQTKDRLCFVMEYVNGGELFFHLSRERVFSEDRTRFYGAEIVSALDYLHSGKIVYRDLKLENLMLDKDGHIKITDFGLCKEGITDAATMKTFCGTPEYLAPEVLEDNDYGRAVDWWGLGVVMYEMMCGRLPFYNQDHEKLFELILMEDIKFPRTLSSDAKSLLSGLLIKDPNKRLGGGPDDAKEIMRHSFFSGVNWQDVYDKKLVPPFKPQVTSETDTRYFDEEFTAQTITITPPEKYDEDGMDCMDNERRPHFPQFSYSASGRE
T1 sequence (P31749 2-446 E114A/E115A/E116A): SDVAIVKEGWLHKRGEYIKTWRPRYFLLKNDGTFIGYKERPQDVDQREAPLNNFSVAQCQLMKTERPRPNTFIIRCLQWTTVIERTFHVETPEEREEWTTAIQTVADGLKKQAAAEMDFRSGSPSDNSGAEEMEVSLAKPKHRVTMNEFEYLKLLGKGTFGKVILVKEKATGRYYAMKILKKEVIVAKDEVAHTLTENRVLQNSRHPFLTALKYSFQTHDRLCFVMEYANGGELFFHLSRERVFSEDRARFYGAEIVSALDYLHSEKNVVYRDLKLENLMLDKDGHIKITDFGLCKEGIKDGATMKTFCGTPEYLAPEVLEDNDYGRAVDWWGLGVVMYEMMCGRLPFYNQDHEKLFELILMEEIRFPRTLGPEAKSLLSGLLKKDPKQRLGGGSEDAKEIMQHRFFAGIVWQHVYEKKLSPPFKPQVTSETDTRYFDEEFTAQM

Row | Structure (SMILES) | EC50 (Ba/F3^myr-Akt3 cells; [6]) [µM] | EC50 (Ba/F3^myr-Akt3 cells; [7]) [µM] | EC50 (Ba/F3^myr-Akt3 cells; [8]) | EC50 (Ba/F3^myr-Akt1 cells; [9]) [µM] | EC50 (Ba/F3^myr-Akt1 cells; [10]) [µM] | EC50 (Ba/F3^myr-Akt1 cells; [11]) | IC50 (Akt2; [12]) | IC50 (Akt2; [13]) [µM] | EC50 (parental Ba/F3 cells; [14]) [µM] | EC50 (parental Ba/F3 cells; [15]) [µM] | EC50 (parental Ba/F3 cells; [16]) [µM] | EC50 (parental Ba/F3 cells; [17]) [µM] | IC50 (Akt1 [4]; [18]) [µM] | IC50 (Akt1 [4]; [19]) | IC50 (Akt1 [4]; [20]) [µM] | Log ratio IC50 [Akt] / IC50 [Akt], Akt1 / Akt2 (Akt1 [4]) | EC50 (Ba/F3^myr-Akt2 cells; [21]) | Log ratio EC50 [Akt] / EC50 [Akt], Akt3 / Akt2 (Ba/F3^myr-Akt3 cells) | Log ratio EC50 [Akt] / EC50 [Akt], Akt1 / Akt2 (Ba/F3^myr-Akt1 cells) | IC50 (Akt3; [22]) [µM] | other results
1 | C=CC(=O)Nc1ccc2[nH]c(=O)n(C3CCN(Cc4ccc(-c5nc6cc[nH]c(=O)c6cc5-c5ccccc5)cc4)CC3)c2c1 [Borussertib, reference compound] | 6.84 | 6.16 | 6.18 µM and 7.62 µM and 7.38 µM | 0.44 | 0.341 | 0.491 µM and 0.488 µM |  |  |  |  |  |  |  |  |  |  |  |  |  |  | pAkt and downstream targets (immunoblot) [1]: dose-dependent reduction of pAkt; pAkt and downstream targets (immunoblot) [2]: dose-dependent reduction of pAkt; cell viability (parental Ba/F3 cells; 0.1 nM, single replicates, 0.0001 µM): 106.4 % of control and 91.0 % of control; cell viability (parental Ba/F3 cells; 5000 nM, single replicates, 5 µM): 102.2 % of control and 91.4 % of control; EC50 (parental Ba/F3 cells; Mus musculus, BaF3, read-out: CTG BaF3, Mean, parental cells, mean of replicates): 20.1 µM; EC50 (parental Ba/F3 cells; read-out: CTG BaF3, individual determinations, parental cells, single replicates): 16.8 µM and 10.9 µM and 24.4 µM; viability at 3 days, 0.0001 µM ([3]; 0.1 nM, read-out: cell viability): 98.5%; viability at 3 days, 5 µM ([3]; 5000 nM): 108%; cell viability (Ba/F3^myr-Akt3 cells; CTG, myr-Akt3, 0.1 nM, single replicates, 0.0001 µM): 96.6 % of control and 95.9 % of control; cell viability (Ba/F3^myr-Akt3 cells; CTG, myr-Akt3, 5000 nM, single replicates, 5 µM): 70.7 % of control and 65.0 % of control; viability at 5 µM (Ba/F3^myr-Akt3 cells; Mus musculus, read-out: cell viability, CTG, myr-Akt3, 5000 nM, single replicates): 73.8%; cell viability (Ba/F3^myr-Akt1 cells; CTG, myr-Akt1, 0.1 nM, single replicates, 0.0001 µM): 99.2 % of control and 105.4 % of control; cell viability (Ba/F3^myr-Akt1 cells; CTG, myr-Akt1, 5000 nM, single replicates, 5 µM): 3.1 % of control and 7.0 % of control and 4.5 % of control; viability at 0.0001 µM (Ba/F3^myr-Akt1 cells; Mus musculus, read-out: cell viability, CTG, myr-Akt1, 0.1 nM, single replicates): 90%
2 | C=CC(=O)Nc1ccc2[nH]c(=O)n(C3CCN(Cc4ccc(-c5ncc(CO)cc5-c5ccccc5)cc4)CC3)c2c1 [compound 3] | > 30 | > 30 | > 30 µM | 28.3 | 26.6 | 28.3 µM | 1.02 µM and 0.724 µM and 1.14 µM | 0.961 ± 0.174 | > 30 | > 30 | > 30 | > 30 | 0.184 | 0.133 µM and 0.103 µM and 0.189 µM and 0.31 µM | 0.186 ± 0.079 | -0.71 | 21.2 µM and 12.4 µM and > 30 µM | -0.15 | 0.13 | > 20 | IC50 (Akt2; HTRF IC50 Akt2, Mean, mean of replicates): 0.961 µM; EC50 BaF3myr-Akt3 (Ba/F3^myr-Akt3 cells; CTG): generally inactive; EC50 (Ba/F3^myr-Akt3 cells; Mus musculus, read-out: EC50 BaF3myr-Akt3, CTG): > 30 µM; EC50 BaF3myr-Akt1 (Ba/F3^myr-Akt1 cells; CTG): generally inactive; modified cysteine residues in Akt1 (MS/MS) (Akt1 [5]): Cys296 and Cys310
3 | C=CC(=O)Nc1ccc2[nH]c(=O)n(C3CCN(Cc4ccc(-c5ncc(C(=O)NC)cc5-c5ccccc5)cc4)CC3)c2c1 [compound 6] |  | > 30 | 22.6 µM and 24.5 µM | 9.61 | 7.7 | 11.7 µM and 9.47 µM | 0.0841 µM and 0.151 µM and 0.0886 µM | 0.108 ± 0.031 | > 30 | > 30 | > 30 | > 30 | 0.112 | 0.113 µM and 0.133 µM and 0.0909 µM | 0.112 ± 0.021 | 0.02 | 7.18 µM and 12.6 µM | -0.38 | -0.05 | 5.75 ± 1.55 | loss of activity compared to the ester version (Akt1 [4]; Akt1, biochemical IC50): 4 fold; EC50 (Ba/F3^myr-Akt2 cells; Mus musculus, read-out: CTG BaF3myr-Akt2, Mean, mean of replicates): 10.8 µM; EC50 (Ba/F3^myr-Akt2 cells; Mus musculus, read-out: CTG BaF3myr-Akt2, individual determinations, single replicates): 12.6 µM; IC50 (Akt3; HTRF IC50 Akt3, Mean, mean of replicates): 5.75 µM; IC50 (Akt3; HTRF IC50 Akt3, individual determinations, single replicates): 5.69 µM and 3.89 µM and 7.68 µM; modified cysteine residues in Akt1 (MS/MS) (Akt1 [5]): Cys296 and Cys310
